Data reported in ChEMBL document CHEMBL4270491, “Novel 2,4- thiazolidinediones: Synthesis, in vitro cytotoxic activity, and mechanistic investigation” (Eur J Med Chem, 2017).
The source made the active and inactive calls. No cut-off for these calls is given here.

Tests used:
[1] = system: HT-1080; experiment: Cytotoxic activity in human HT1080 cells assessed as reduction in cell viability incubated for 3 days by MTT assay; format: functional, cell-based; conditions: HT-1080, 72 h
[2] = system: MDA-MB-231; experiment: Cytotoxic activity in human MDA-MB-231 cells assessed as reduction in cell viability incubated for 3 days by MTT assay; format: functional, cell-based; conditions: MDA-MB-231, 72 h
[3] = system: HT-1080; experiment: Induction of apoptosis in human HT1080 cells assessed as induction of DNA fragmentation at 50 uM incubated for 48 hrs by flow cytometry; format: functional, cell-based
[4] = system: HT-1080; experiment: Induction of cell cycle arrest in human HT1080 cells assessed as accumulation at G0/G1 phase at 50 uM incubated for 48 hrs by propidium iodide staining based flow cytometry; format: functional
[5] = system: HT-1080; experiment: Induction of cell cycle arrest in human HT1080 cells assessed as accumulation at G2/M phase at 50 uM incubated for 48 hrs by propidium iodide staining based flow cytometry; format: functional
[6] = system: PC-3; experiment: Cytotoxic activity in human PC3 cells assessed as reduction in cell viability incubated for 3 days by MTT assay; format: functional, cell-based; conditions: PC-3, 72 h
[7] = system: HT-1080; experiment: Induction of apoptosis in human HT1080 cells assessed as induction of caspase-3 cleavage at 50 uM incubated for 24 hrs by Western blot analysis; format: functional, cell-based
[8] = system: HT-1080; experiment: Increase in p21(WAF1) protein expression in human HT1080 cells at 50 uM incubated for 24 hrs by Western blot analysis; format: functional, cell-based
[9] = system: PC-3; experiment: Increase in p21(WAF1) protein expression in human PC3 cells at 50 uM incubated for 24 hrs by Western blot analysis; format: functional, cell-based
[10] = system: MDA-MB-231; experiment: Increase in p21(WAF1) protein expression in human MDA-MB-231 cells at 50 uM incubated for 24 hrs by Western blot analysis; format: functional, cell-based
[11] = target: T1, Mitogen-activated protein kinase; ERK1/ERK2 (Homo sapiens) (UniProt P27361+P28482); experiment: Inhibition of ERK1/2 Thr202/Tyr204 phosphorylation in human MDA-MB-231 cells at 50 uM incubated for 24 hrs by Western blot analysis; format: cell-based
T1 sequence (P27361 whole entry, looked up): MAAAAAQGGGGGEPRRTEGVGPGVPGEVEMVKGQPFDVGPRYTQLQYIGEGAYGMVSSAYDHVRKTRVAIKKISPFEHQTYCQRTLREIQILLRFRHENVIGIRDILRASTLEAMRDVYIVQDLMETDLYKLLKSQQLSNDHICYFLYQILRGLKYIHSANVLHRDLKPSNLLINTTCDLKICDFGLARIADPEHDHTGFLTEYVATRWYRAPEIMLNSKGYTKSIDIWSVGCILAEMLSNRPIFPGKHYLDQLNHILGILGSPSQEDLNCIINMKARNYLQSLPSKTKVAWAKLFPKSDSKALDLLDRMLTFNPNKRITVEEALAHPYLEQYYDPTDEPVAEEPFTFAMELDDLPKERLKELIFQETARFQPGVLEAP
T1 sequence (P28482 whole entry, looked up): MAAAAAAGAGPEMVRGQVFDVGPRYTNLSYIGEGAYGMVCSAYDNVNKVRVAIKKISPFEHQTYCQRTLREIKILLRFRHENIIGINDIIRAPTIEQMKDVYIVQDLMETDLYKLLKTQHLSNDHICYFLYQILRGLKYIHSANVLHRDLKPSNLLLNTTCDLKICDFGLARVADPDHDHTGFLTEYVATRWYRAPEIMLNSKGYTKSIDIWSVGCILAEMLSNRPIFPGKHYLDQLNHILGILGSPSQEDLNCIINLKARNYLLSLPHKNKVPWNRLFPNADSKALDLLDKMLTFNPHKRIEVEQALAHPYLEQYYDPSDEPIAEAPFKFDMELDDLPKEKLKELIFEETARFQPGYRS

[12] = target: T1, Mitogen-activated protein kinase; ERK1/ERK2 (Homo sapiens); experiment: Induction of ERK1/2 Thr202/Tyr204 phosphorylation in human PC3 cells at 50 uM incubated for 24 hrs by Western blot analysis; format: cell-based
[13] = system: HT-1080; experiment: Induction of cell cycle arrest in human HT1080 cells assessed as accumulation at G0/G1 phase at 20 uM incubated for 48 hrs by propidium iodide staining based flow cytometry; format: functional
[14] = system: HT-1080; experiment: Induction of cell cycle arrest in human HT1080 cells assessed as accumulation at G2/M phase at 20 uM incubated for 48 hrs by propidium iodide staining based flow cytometry; format: functional

`COc1ccc(/C=C2/SC(=O)N(Cc3nc4ccccc4c(=O)n3-c3ccccc3)C2=O)cc1` was tested, and the IC50 [1] was 47.8 µM, the IC50 [2] was 32.5 µM and the Activity [3] was “Active”. For the same compound, the Activity [4] was “Active”, the Activity [5] was “Active” and the IC50 [6] was 79.6 µM.

`COc1cc(/C=C2/SC(=O)NC2=O)ccc1OCc1nc2ccccc2c(=O)n1-c1ccccc1` was tested, and the IC50 [1] was 64.7 µM, the IC50 [2] was 84.2 µM and the Activity [3] was “Active”. The Activity [4] was “Active”, the Activity [5] was “Active” and the IC50 [6] was 64.2 µM.

For `COc1cc(-n2c(CN3C(=O)S/C(=C/c4ccc(N(C)C)cc4)C3=O)nc3ccccc3c2=O)cc(OC)c1OC`, the IC50 [1] was 98.1 µM, the Activity [7] was “Active” and the IC50 [2] was over 100 µM. For the same compound, the Activity [3] was “inactive”, the Activity [4] was “Active” and the Activity [5] was “Active”. It also gave an IC50 [6] of over 100 µM.

`O=C1NC(=O)/C(=C\c2ccc(OCc3nc4ccccc4c(=O)n3-c3cccc(Br)c3)cc2)S1` was tested, and the IC50 [1] was 28.4 µM, the IC50 [2] was 49.8 µM and the Activity [3] was “Active”. The Activity [4] was “Active”, the Activity [5] was “Active” and the IC50 [6] was 52.9 µM.

In the case of `COc1cccc(-n2c(COc3ccc(/C=C4/SC(=O)NC4=O)cc3OC)nc3ccccc3c2=O)c1`, the IC50 [1] is reported as 47.9 µM, the IC50 [2] is reported as 87.2 µM and the Activity [3] is reported as “Active”. For the same compound, the Activity [4] was “Active”, the Activity [5] was “Active” and the IC50 [6] was 64.1 µM.

`O=C1NC(=O)/C(=C\c2ccc(OCc3nc4ccccc4c(=O)n3-c3ccc(Br)cc3)cc2)S1` was tested, and the IC50 [1] was 46.1 µM, the IC50 [2] was 45.4 µM and the Activity [3] was “Active”. The Activity [4] was “Active”, the Activity [5] was “Active” and the IC50 [6] was 60.7 µM.

`COc1cc(/C=C2/SC(=O)NC2=O)ccc1OCc1nc2ccccc2c(=O)n1-c1ccc(C(F)(F)F)cc1` was tested, and the IC50 [1] was 38.8 µM, the Activity [7] was “Active” and the IC50 [2] was 41 µM. For the same compound, the Activity [3] was “Active”, the Activity [4] was “Active” and the Activity [5] was “Active”. For the same compound, the IC50 [6] was 50.1 µM.

In the case of `CCc1ccc(CCOc2ccc(CC3SC(=O)NC3=O)cc2)nc1` (stereo not given) [PIOGLITAZONE], the Activity [8] is reported as “inactive”, the IC50 [1] is reported as over 100 µM and the Activity [9] is reported as “Active”. The IC50 [2] was over 100 µM, the Activity [10] was “Active” and the Activity [3] was “inactive”. For the same compound, the IC50 [6] was over 100 µM.

`O=C1S/C(=C/c2ccccc2)C(=O)N1Cc1nc2ccccc2c(=O)n1-c1cccc(Br)c1` gave an IC50 [1] of 24.6 µM, an IC50 [2] of 23.4 µM and an IC50 [6] of 37 µM.

For `O=C1NC(=O)/C(=C\c2ccc(OCc3nc4ccccc4c(=O)n3-c3ccc(C(F)(F)F)cc3)cc2)S1`, the Activity [8] was “inactive”, the IC50 [1] was 9 µM and the Activity [7] was “Active”. The Activity [9] was “Active”, the IC50 [2] was 13 µM and the inhibition [11] was “Active”. The Activity [12] was “Active”, the Activity [10] was “Active” and the Activity [3] was “Active”. For the same compound, the Activity [13] was “Active”, the IC50 [6] was 19.1 µM and the Activity [14] was “Active”.

With `COc1cc(/C=C2/SC(=O)NC2=O)ccc1OCc1nc2ccccc2c(=O)n1-c1cccc(Br)c1` the IC50 [1] was 41.9 µM, the IC50 [2] was 62.1 µM and the Activity [3] was “Active”. The Activity [4] was “Active”, the Activity [5] was “Active” and the IC50 [6] was 66.8 µM.

With `O=C1NC(=O)/C(=C\c2ccc(OCc3nc4ccccc4c(=O)n3-c3ccc(Cl)cc3)cc2)S1` the Activity [8] was “inactive”, the IC50 [1] was 3.9 µM and the Activity [7] was “Active”. The Activity [9] was “Active”, the IC50 [2] was 4.5 µM and the inhibition [11] was “Active”. For the same compound, the Activity [12] was “Active”, the Activity [10] was “Active” and the Activity [3] was “Active”. For the same compound, the Activity [13] was “Active”, the IC50 [6] was 8.7 µM and the Activity [14] was “Active”.

For `O=C1S/C(=C/c2ccc(Cl)cc2Cl)C(=O)N1Cc1nc2ccccc2c(=O)n1-c1ccccc1`, the IC50 [1] was 12.2 µM, the IC50 [2] was 6.4 µM and the Activity [3] was “inactive”. For the same compound, the Activity [13] was “Active”, the IC50 [6] was 58.1 µM and the Activity [14] was “Active”.

For `O=C1NC(=O)/C(=C\c2ccc(OCc3nc4ccccc4c(=O)n3-c3ccccc3)cc2)S1`, the IC50 [1] was 34.9 µM, the IC50 [2] was 50.7 µM and the Activity [3] was “Active”. The Activity [4] was “Active”, the Activity [5] was “Active” and the IC50 [6] was 71 µM.

`COc1cc(/C=C2/SC(=O)NC2=O)ccc1OCc1nc2ccccc2c(=O)n1-c1cccc(Cl)c1` gave an IC50 [1] of 67.6 µM, an IC50 [2] of 72.5 µM and an IC50 [6] of 62.1 µM.

`CN(C)c1ccc(/C=C2/SC(=O)N(Cc3nc4ccccc4c(=O)n3-c3ccccc3)C2=O)cc1` was tested, and the IC50 [1] was 9 µM, the Activity [7] was “Active” and the IC50 [2] was 5.9 µM. The inhibition [11] was “Active”, the Activity [12] was “Active” and the Activity [3] was “Active”. The Activity [13] was “Active”, the IC50 [6] was 19.4 µM and the Activity [14] was “Active”.

In the case of `COc1ccc(-n2c(CN3C(=O)S/C(=C/c4ccc(N(C)C)cc4)C3=O)nc3ccccc3c2=O)cc1OC`, the IC50 [1] is reported as 86.5 µM, the Activity [7] is reported as “Active” and the IC50 [2] is reported as over 100 µM. For the same compound, the Activity [3] was “Active”, the Activity [4] was “Active” and the Activity [5] was “Active”. It also gave an IC50 [6] of over 100 µM.

For `COc1cccc(-n2c(COc3ccc(/C=C4/SC(=O)NC4=O)cc3)nc3ccccc3c2=O)c1`, the IC50 [1] was 45.6 µM, the IC50 [2] was 59.6 µM and the Activity [3] was “Active”. For the same compound, the Activity [4] was “Active”, the Activity [5] was “Active” and the IC50 [6] was 66.9 µM.

`Cc1ccc(-n2c(COc3ccc(/C=C4/SC(=O)NC4=O)cc3)nc3ccccc3c2=O)cc1` was tested, and the IC50 [1] was 45.3 µM, the IC50 [2] was 72.2 µM and the Activity [3] was “Active”. For the same compound, the Activity [4] was “Active”, the Activity [5] was “Active” and the IC50 [6] was 82.5 µM.

With `O=C1NC(=O)/C(=C\c2ccc(OCc3nc4ccccc4c(=O)n3-c3ccc(F)cc3)cc2)S1` the IC50 [1] was 45.3 µM, the IC50 [2] was 46.2 µM and the Activity [3] was “Active”. The Activity [4] was “Active”, the Activity [5] was “Active” and the IC50 [6] was 52.1 µM.

For `COc1cc(/C=C2/SC(=O)NC2=O)ccc1OCc1nc2ccccc2c(=O)n1-c1ccc(Br)cc1`, the IC50 [1] was 18.9 µM, the Activity [7] was “Active” and the IC50 [2] was 51.3 µM. The Activity [3] was “Active”, the Activity [4] was “Active” and the Activity [5] was “Active”. The IC50 [6] was 51.1 µM.

In the case of `COc1cccc2c1C(=O)c1c(O)c3c(c(O)c1C2=O)C[C@@](O)(C(=O)CO)C[C@@H]3O[C@H]1C[C@H](N)[C@H](O)[C@H](C)O1` [DOXORUBICIN], the IC50 [1] is reported as 0.017 µM, the IC50 [2] is reported as 0.36 µM and the IC50 [6] is reported as 0.3 µM.

Work on `Cc1cccc(-n2c(COc3ccc(/C=C4/SC(=O)NC4=O)cc3)nc3ccccc3c2=O)c1` yielded an IC50 [1] of 54 µM, an IC50 [2] of over 100 µM and an IC50 [6] of over 100 µM.

In the case of `O=C1NC(=O)/C(=C\c2ccc(OCc3nc4ccccc4c(=O)n3-c3cccc(Cl)c3)cc2)S1`, the IC50 [1] is reported as 44.8 µM, the IC50 [2] is reported as 58.5 µM and the Activity [3] is reported as “Active”. The Activity [4] was “Active”, the Activity [5] was “Active” and the IC50 [6] was 70.2 µM.

In the case of `Cc1ccc(/C=C2/SC(=O)N(Cc3nc4ccccc4c(=O)n3-c3ccccc3)C2=O)cc1`, the IC50 [1] is reported as 68.4 µM, the IC50 [2] is reported as 39.7 µM and the IC50 [6] is reported as 82.4 µM.
